Assay results reported in patent US5053395A, “Pradimicin amide derivatives” (Bristol-Myers Company, priority 1989, dated 1991).
≈ marks a conversion by molar mass, not a printed value.

Key:
A. fumigatus = assay: In vitro antifungal activity, MIC by serial agar dilution method (A. fumigatus); assay type: cell-based; conditions: Sabouraud dextrose agar, 44 hours at 28° C.; for MIC: Aspergillus fumigatus
Experimental: (§1) Antifungal activities of representative compounds of the present invention were evaluated both in vitro and in vivo. The minimum inhibitory concentrations (MICs) against various fungi were determined by serial agar dilution method using Sabouraud dextrose agar. Thus, approximately 0.003 ml of fungal suspension containing 10^6 cells/ml was applied to the surface of agar plates containing the test antibiotics. The MIC values recorded after the cultures had been incubated for 44 hours at 28° C. are set forth below in Table I.

C. neoformans = assay: In vitro antifungal activity, MIC by serial agar dilution method (C. neoformans); assay type: cell-based; conditions: Sabouraud dextrose agar, 44 hours at 28° C.; for MIC: Cryptococcus neoformans
Experimental: as §1

T. mentagrophytes = assay: In vitro antifungal activity, MIC by serial agar dilution method (T. mentagrophytes); assay type: cell-based; conditions: Sabouraud dextrose agar, 44 hours at 28° C.; for MIC: Trichophyton mentagrophytes
Experimental: as §1

C. albicans = assay: In vitro antifungal activity, MIC by serial agar dilution method (C. albicans); assay type: cell-based; conditions: Sabouraud dextrose agar, 44 hours at 28° C.; for MIC: Candida albicans
Experimental: as §1

Candida albicans A9540 = assay: In vivo activity against Candida albicans A9540 infection in mice; conditions: A9540, 480 h, male ICR mice, intravenous just after i.v. infection, survival on 20th day, read-out: PD50 (dose that protects 50% of the animals from infection)
Experimental: In vivo activity of compounds of the present invention was tested against Candida albicans A9540 infection in mice. Test organisms were cultured for 18 hours at 28° C. in YGP medium (yeast extract, glucose, peptone, K2 HPO4, MgSO4) and then suspended in saline. Male ICR mice weighing 20 to 24 g were infected intravenously with about 10 times the median lethal dose of the test fungus. The antibiotic at various dose levels was administered to groups of 5 mice each intravenously just after the fungal infection. The dose that protects 50% of the animals from infection (PD50, mg/kg) was calculated from survival rates recorded on the 20th day after the fungal challenge. All control animals died within 7 to 15 days after infection. The PD50 for compounds of Examples 2, 4, and 5 are 18 mg/kg, 11 mg/kg and 8.8 mg/kg, respectively.

[1] = tested on: calcium ion and calmodulin-dependent cyclic nucleotide phosphodiesterase; conditions: cited from earlier work

## CN[C@@H]1[C@H](O[C@@H]2OC[C@@H](O)[C@H](O)[C@H]2O)[C@@H](O)[C@H](O[C@H]2c3cc(C)c(C(=O)N[C@H](C)C(=O)N[C@H](C)C(=O)O)c(O)c3-c3c(cc4c(c3O)C(=O)c3cc(OC)cc(O)c3C4=O)[C@@H]2O)O[C@@H]1C [Example 1, D-alanyl Pradimicin A]
A. fumigatus
  MIC: > 100 µg/mL
C. neoformans
  MIC: 6.3 µg/mL (≈ 6.91 µM)
T. mentagrophytes
  MIC: > 100 µg/mL
C. albicans
  MIC: 25 µg/mL (≈ 27.4 µM)

## CN[C@@H]1[C@H](O[C@@H]2OC[C@@H](O)[C@H](O)[C@H]2O)[C@@H](O)[C@H](O[C@H]2c3cc(C)c(C(=O)N[C@H](C)C(=O)N(C)C)c(O)c3-c3c(cc4c(c3O)C(=O)c3cc(OC)cc(O)c3C4=O)[C@@H]2O)O[C@@H]1C [Example 2, Pradimicin A Dimethylamide]
A. fumigatus
  MIC: 6.3 µg/mL (≈ 7.26 µM)
C. neoformans
  MIC: 1.6 µg/mL (≈ 1.84 µM)
T. mentagrophytes
  MIC: 12.5 µg/mL (≈ 14.4 µM)
Candida albicans A9540
  ED50: 18 mg/kg
C. albicans
  MIC: 12.5 µg/mL (≈ 14.4 µM)

## CN[C@@H]1[C@H](O[C@@H]2OC[C@@H](O)[C@H](O)[C@H]2O)[C@@H](O)[C@H](O[C@H]2c3cc(C)c(C(=O)N[C@H](C)C(=O)NN)c(O)c3-c3c(cc4c(c3O)C(=O)c3cc(OC)cc(O)c3C4=O)[C@@H]2O)O[C@@H]1C [Example 3, Pradimicin A Hydrazide]
A. fumigatus
  MIC: 25 µg/mL (≈ 29.2 µM)
C. neoformans
  MIC: 3.1 µg/mL (≈ 3.63 µM)
T. mentagrophytes
  MIC: 25 µg/mL (≈ 29.2 µM)
C. albicans
  MIC: 50 µg/mL (≈ 58.5 µM)

## CN[C@@H]1[C@H](O[C@@H]2OC[C@@H](O)[C@H](O)[C@H]2O)[C@@H](O)[C@H](O[C@H]2c3cc(C)c(C(=O)N[C@H](C)C(N)=O)c(O)c3-c3c(cc4c(c3O)C(=O)c3cc(OC)cc(O)c3C4=O)[C@@H]2O)O[C@@H]1C [Example 4, Pradimicin A Amide]
A. fumigatus
  MIC: 6.3 µg/mL (≈ 7.5 µM)
C. neoformans
  MIC: 1.6 µg/mL (≈ 1.91 µM)
T. mentagrophytes
  MIC: 12.5 µg/mL (≈ 14.9 µM)
Candida albicans A9540
  ED50: 11 mg/kg
C. albicans
  MIC: 6.3 µg/mL (≈ 7.5 µM)

## CNC(=O)[C@@H](C)NC(=O)c1c(C)cc2c(c1O)-c1c(cc3c(c1O)C(=O)c1cc(OC)cc(O)c1C3=O)[C@H](O)[C@H]2O[C@@H]1O[C@H](C)[C@H](NC)[C@H](O[C@@H]2OC[C@@H](O)[C@H](O)[C@H]2O)[C@H]1O [Example 5, Pradimicin A Methylamide]
A. fumigatus
  MIC: 6.3 µg/mL (≈ 7.38 µM)
C. neoformans
  MIC: 1.6 µg/mL (≈ 1.87 µM)
T. mentagrophytes
  MIC: 6.3 µg/mL (≈ 7.38 µM)
Candida albicans A9540
  ED50: 8.8 mg/kg
C. albicans
  MIC: 6.3 µg/mL (≈ 7.38 µM)

## CN[C@@H]1[C@H](O[C@@H]2OC[C@@H](O)[C@H](O)[C@H]2O)[C@@H](O)[C@H](O[C@H]2c3cc(C)c(C(=O)N[C@H](C)C(=O)NCC(=O)O)c(O)c3-c3c(cc4c(c3O)C(=O)c3cc(OC)cc(O)c3C4=O)[C@@H]2O)O[C@@H]1C [Example 7, Glycyl Pradimicin A]
A. fumigatus
  MIC: > 50 µg/mL
C. neoformans
  MIC: 12.5 µg/mL (≈ 13.9 µM)
T. mentagrophytes
  MIC: > 50 µg/mL
C. albicans
  MIC: > 50 µg/mL

## CC(=O)Cc1cc2c(c(O)c1C(=O)O)-c1cc3c(c(O)c1CC2)C(=O)c1c(O)cc(O)cc1C3=O [KS-619-1]
[1]
  inhibitor of calcium ion and calmodulin-dependent cyclic nucleotide phosphodiesterase: inhibitor

## Pradimicin A Butylamide [Example 6]
A. fumigatus
  MIC A. fumigatus: 50 µg/mL
C. neoformans
  MIC C. neoformans: 3.1 µg/mL
T. mentagrophytes
  MIC T. mentagrophytes: 100 µg/mL
C. albicans
  MIC C. albicans: 100 µg/mL
